How the values were obtained:
Type in all cases: functional
Cryptosporidium parvum = test: percentage of controls is reported as the counted oocysts obtained from alimentary tract tissues using a blinded protocol on Cryptosporidium parvum at dose of 62 umol/kg/day
Pneumocystis carinii [1] = test: Percentage of control was reported as the counted cysts in lung tissue using blinded protocol of saline-treated controls on Pneumocystis carinii at dose of 22.1 umol/kg/day
Pneumocystis carinii [2] = test: in vivo activity against Pneumocystis carinii at dose of 22.1 umol/kg/day
[3] = In vitro increase in thermal melting of oligomer d(CGCGAATTCGCG)2

**Q.** What does the source list for `N=C(N)c1ccc(OCCCCCOc2ccc(C(=N)N)cc2)cc1` [PENTAMIDINE]?
**A.** Of control (Cryptosporidium parvum): 20.8%; Of control (Pneumocystis carinii [1]): 1.47%; Toxicity (Pneumocystis carinii [2]): 2; ΔTm [3]: 4.8
